This assay deals with platelets. The experiment in a line: Secretion of PN-2/βAPP and granule markers from platelets after activation by agonists. The settings on record: for PN-2/βAPP percent secreted / ADP/ATP percent secreted / LA-PF4 percent secreted / LDH loss (percent), marker of platelet lysis: collagen 20 μg/ml or thrombin 1 U/ml, 10 minutes; for fraction of total platelet PN-2/βAPP secreted on activation: freshly washed platelets. It counts as cell-based. As to the method: Secretion of PN-2/βAPP from platelets after activation by the agonists collagen or thrombin was studied. Briefly, fresh platelets washed by albumin density gradient centrifugation and gel filtration were incubated for 30 minutes at 37° C. in the absence or presence of the combined metabolic inhibitors antimycin A (15 μg/ml), 2-deoxy-D-glucose (30 mM), and D-gluconic acid δ-lactone (10 mM). The platelets were then placed into a cuvette 37° C. water bath with stirring at 1,200 rpm, and collagen (20 μg/ml or .varies.-thrombin (1 U/ml) was added. After 10 minutes, the samples were centrifuged at 12,000 x g for 4 minutes and supernatants were collected. Aliquots were removed and quantitated for PN-2/βAPP by incubation with ^125 I-EGF BP and analysis of complex formation by SDS-PAGE and autoradiography as in Example 15. Autoradiograms were aligned with dried gels; ^125 I-EGF BP:PN-2/βAPP complexes were located, excised and quantitated in a […]. Aliquots were also quantitated for platelet markers as follows: total adenine nucleotide (ADP/ATP) secretion was measured by the method of Homsen et al., Anal. Biochem., 46:489 (1972); low affinity platelet factor 4 (LA-PF4) secretion was quantitated by the method of Rucinski et al., Blood, 53:47 (1979); and cytosolic lactate dehydrogenase (LDH) loss was assessed by the procedure of Wroblewski and Ladue, Proc. Soc. Exper. Biol. Med., 77:389 (1978), the disclosures of which are hereby incorporated by reference. Values represent the percent secreted. Percent secreted was determined from the ratio of releasate in agonist treated sample to the total amount present in detergent lysate; nonstimulated platelet supernatants were subtracted from both. Values expressed are the mean ±SEM of three experiments, each consisting of combined platelets from two donors.

Where [1] appears, read: Inhibitor-Treated Platelets (antimycin A, 2-deoxy-D-glucose, D-gluconic acid δ-lactone).
The mark [2] stands for this setting: Inhibitor-Treated Platelets, mean ±SEM.
[3] abbreviates: Washed Platelets, 37° C., mean ±SEM of three experiments.

Turning to Thrombin, the “fraction of total platelet PN-2/βAPP secreted on activation” value is reported as “approximately one-half”. The PN-2/βAPP percent secreted under setting [1] was found to be 0%. In addition, under setting [2], the ADP/ATP percent secreted is listed as 0% and the LA-PF4 percent secreted is recorded as 0.4 ± 0.4%. Under setting [3], this substance returned a PN-2/βAPP percent secreted of 53.7 ± 7.6%. For the setting “Washed Platelets, mean ±SEM”, the ADP/ATP percent secreted is 68 ± 11%; the LA-PF4 percent secreted was found to be 69 ± 6.2%; the “LDH loss (percent), marker of platelet lysis” value (from here on “LDH loss (percent), marker”) amounted to 0%.

Turning to Collagen, the “fraction of total platelet PN-2/βAPP secreted on activation” value is on record as “approximately one-half”. Under setting [1], the PN-2/βAPP percent secreted was determined as 0%. Further, the “LDH loss (percent), marker” value (Inhibitor-Treated Platelets) worked out at 0%. Under setting [2], this substance registered an ADP/ATP percent secreted of 1.3 ± 1.3% and an LA-PF4 percent secreted of 0%. For the same substance, under setting [3], the PN-2/βAPP percent secreted stood at 46.3 ± 7.7%. For the setting “Washed Platelets, mean ±SEM”, the ADP/ATP percent secreted was determined as 45 ± 16%; the LA-PF4 percent secreted turned out to be 52 ± 11%; the “LDH loss (percent), marker” value is on record as 1.3 ± 1.3%.

The record behind these values is US5270165A, “Method of diagnosis of amyloidoses” (The Reagents of the University of California, priority 1991, dated 1993).
